Patent US10859569B2, “SmFRET with membrane proteins” (Cornell University, priority 2010, dated 2020)
Entries after “also recorded” stand apart in the source; their conditions may differ.

How the values were obtained:
[1] = target: Y335A dopamine transporter (Homo sapiens, UniProt Q01959, Y335A); details: Y335A dopamine transporter mutant; cited from earlier work
[2] = tested on: LeuT (H7C/R86C); assay: smFRET imaging of surface-immobilized Cy3/Cy5-labeled LeuT (H7C/R86C), intracellular gate; assay type: biochemical, Aquifex aeolicus
Description: (§1) The inventors acquired fluorescence data using a prism-based TIR microscope, as described (Munro, J. B. et al., Mol. Cell 25, 505-517 (2007)). All experiments were performed in buffer containing 50 mM Tris/MES (pH 7.5), 10% glycerol, 0.02% w/v DDM, 5 mM 2-mercaptoethanol and 200 mM salt (KCl or NaCl, as specified). The inventors used an oxygen scavenging environment (1 unit per μl glucose oxidase, 8 units per μl catalase, 0.1% v/v glucose) containing 1 mM cyclooctatetraene in all experiments to minimize photobleaching (Dave, R. et al., Biophys. J. 96, 2371-2381 (2009)).
(§2) The inventors incubated microfluidic imaging chambers passivated with a mixture of PEG and biotin-PEG (Blanchard, S. C. et al. Proc. Natl Acad. Sci. USA 101, 12893-12898 (2004)) with 0.8 μM streptavidin (Invitrogen), followed by 20 nM biotin-NTA (Biotium) charged with NiCl2. Cy3/Cy5-labeled His10-LeuT molecules (2 nM) were surface-immobilized to surface-bound Ni2+. The inventors observed no significant surface immobilization, measured as described below, in the absence of biotin-NTA.
Cy3 fluorophores were excited by the evanescent wave generated by TIR of a single-frequency light source (Ventus 532 nm, Laser Quanta). Photons emitted from Cy3 and Cy5 were collected using a 1.2 NA 60× water-immersion objective (Nikon), and optical treatments were used to spatially separate Cy3 and Cy5 frequencies onto a cooled, back-thinned CCD (Cascade 128, Photometrics). The inventors acquired fluorescence data using MetaMorph software (Universal Imaging Corporation). The inventors corrected spectral bleed-through of Cy3 intensity on the acceptor channel by subtracting 7.5% of donor signal from the acceptor. FRET traces were calculated as: FRET=ICy5/(ICy3+ICy5), where ICy3 and ICy5 are the instantaneous Cy3 and Cy5 fluorescence intensities, respectively. Using an established procedure (Roy, et al., Nature Methods 5: 507-516 (2008)), The inventors estimated the ratio of donor and acceptor quantum yields and detection efficiencies (γ) to be close to 1; therefore, no correction was applied.
The inventors analyzed fluorescence and FRET traces using automated analysis, in which traces were selected using algorithms implemented in MATLAB (MathWorks). Algorithms for analyzing smFRET data are found in U.S. 61/437,203, which is herein incorporated by reference in its entirety. Properties were calculated for each trace, and selected for further analysis if they met the following specific criteria: a single photobleaching event, at least 8:1 signal-to-background noise ratio (SNR), <4 donor fluorophore blinking events, a donor-to-acceptor Pearson's correlation coefficient <0.5, and a lifetime of at least 15 frames showing FRET ≥0.15. The inventors detected photobleaching events in each trace as a significant (≥3 standard deviations of background noise) drop in the median-filtered (window size of 9 frames) total fluorescence intensity (ITotal=ICy3+ICy5) without a return to the previous average level. Events in which fluorescence intensity did return were marked as blinking events. Signal-to-noise ratios are calculated as total intensity relative to the standard deviation of background noise: ITotal/stdev(ICy3)+stdev(ICy5). The inventors excluded data points corresponding to donor fluorophore dark states from calculation of the correlation coefficient.
To simplify the presentation of FRET histograms, The inventors removed zero-FRET states following idealization of the data to a two-state model (E=0.1±0.1 and E=0.4±0.1) using a segmental k-means algorithm (Qin, F., Biophys. J. 86, 1488-1501 (2004)). Error bars in FRET histograms represent the standard deviation of 100 bootstrap samples of each set of FRET traces examined.
The inventors estimated kinetic parameters for biotinylated H7C-R86C-LeuT samples by manually selecting traces showing at least one transition between clearly distinct states with anti-correlated changes in donor and acceptor fluorescence intensity in each transition. […]

[3] = tested on: LeuT (K239C/H480C); assay: smFRET imaging of extracellularly labeled LeuT K239C/H480C; assay type: biochemical, Aquifex aeolicus; details: 0.5 mM CMI; increased from ~0.49 without CMI
Description: as §1
as §2, with “Cy3/Cy5-labeled His10-LeuT molecules (2 nM) were surface-immobilized to surface-bound Ni2+.” left out
(§3) Cy3 fluorophores were excited by the evanescent wave generated by TIR of a single-frequency light source (Ventus 532 nm, Laser Quanta). […] The inventors acquired fluorescence data using MetaMorph software (Universal Imaging Corporation). […] FRET traces were calculated as: FRET=ICy5/(ICy3+ICy5), where ICy3 and ICy5 are the instantaneous Cy3 and Cy5 fluorescence intensities, respectively. […]

[4] = tested on: LeuT; assay: 3H-Ala transport in LeuT proteoliposomes; assay type: biochemical, Aquifex aeolicus; details: in the presence of Li+ (150 mM)
Description: Proteoliposomes were prepared as described (Shi, L. et al., Mol. Cell 30, 667-677 (2008)). The accumulation of ^3H-[…].4 Ci mmol^-1; Moravek) was measured at 23° C. in assay buffer comprised of 150/50 mM Tris/Mes (pH 8.5) and 50 mM NaCl/150 mM LiCl. The reaction was quenched by the addition of ice-cold assay buffer without radiotracer and the proteoliposomes were collected on GF75 glass fiber filters (Advantec) before the determination of the accumulated cpm by liquid scintillation counting.

[5] = tested on: LeuT; assay: Scintillation proximity assay (SPA) binding of 3H-alanine to purified LeuT variants; design: species or system Aquifex aeolicus; details: 50 mM Na+
Description: Scintillation proximity-based binding studies. Binding of ^3H-leucine or ^3H-alanine (146 Ci/mmol and 49.4 Ci/mmol, respectively; Moravek) to purified LeuT-variants was measured with the scintillation proximity assay (SPA) as described (Shi, L. et al., Mol. Cell 30, 667-677 (2008)) with 25 ng of purified protein per assay in buffer composed of 150 mM Tris/Mes, pH 7.5/50 mM NaCl/1 mM TCEP/0.1% n-dodecyl-β-D-maltopyranoside or 50 mM Tris/Mes, pH 7.5/150 mM LiCl/1 mM TCEP/0.1% n-dodecyl-β-D-maltopyranoside. To determine the molar ratio of Leu (or Ala)-to LeuT binding samples were incubated with increasing concentrations of radioligand and measured in the SPA cpm mode of the MircoBeta™ counter (Perkin Elmer). The efficiency of detection was calculated with standard curves of known concentrations of ^3H-Leu or ^3H-Ala. The standard curves were used to transform cpm into the amount of bound substrate (Shi, L. et al., Mol. Cell 30, 667-677 (2008)). The amount of LeuT in the SPA assays was determined (Schaffner, W. et al., Anal. Biochem. 56, 502-514 (1973)). SPA-based binding studies using 2 μM [^22Na]Cl (1017 mCi/mg; Perkin Elmer) were performed in 200 Tris/Mes, pH 7.5/1 mM TCEP/0.1% n-dodecyl-β-D-maltopyranoside in the presence of 0-50 mM NaCl (equimolar replacement of Tris/Mes to obtain a total molarity of 200 mM) (Shi, L. et al., Mol. Cell 30, 667-677 (2008)). […]

[6] = tested on: LeuT (H7C/T515C); assay: smFRET imaging of Cy3/Cy5-labeled LeuT H7C/T515C; assay type: biochemical, Aquifex aeolicus; details: saturating Na+ 200 mM
Description: as §1
as §2, with “Cy3/Cy5-labeled His10-LeuT molecules (2 nM) were surface-immobilized to surface-bound Ni2+.” left out
as §3

[7] = tested on: LeuT; details: read-out: half-maximum effective concentration (EC50) of Na+ for stimulating binding and transport; cited from earlier work
[8] = 10 mM Na+ and 250 μM Ala, 0.1 mM CMI or 35 mM OG

Y335A dopamine transporter, sequence (Q01959 whole entry Y335A): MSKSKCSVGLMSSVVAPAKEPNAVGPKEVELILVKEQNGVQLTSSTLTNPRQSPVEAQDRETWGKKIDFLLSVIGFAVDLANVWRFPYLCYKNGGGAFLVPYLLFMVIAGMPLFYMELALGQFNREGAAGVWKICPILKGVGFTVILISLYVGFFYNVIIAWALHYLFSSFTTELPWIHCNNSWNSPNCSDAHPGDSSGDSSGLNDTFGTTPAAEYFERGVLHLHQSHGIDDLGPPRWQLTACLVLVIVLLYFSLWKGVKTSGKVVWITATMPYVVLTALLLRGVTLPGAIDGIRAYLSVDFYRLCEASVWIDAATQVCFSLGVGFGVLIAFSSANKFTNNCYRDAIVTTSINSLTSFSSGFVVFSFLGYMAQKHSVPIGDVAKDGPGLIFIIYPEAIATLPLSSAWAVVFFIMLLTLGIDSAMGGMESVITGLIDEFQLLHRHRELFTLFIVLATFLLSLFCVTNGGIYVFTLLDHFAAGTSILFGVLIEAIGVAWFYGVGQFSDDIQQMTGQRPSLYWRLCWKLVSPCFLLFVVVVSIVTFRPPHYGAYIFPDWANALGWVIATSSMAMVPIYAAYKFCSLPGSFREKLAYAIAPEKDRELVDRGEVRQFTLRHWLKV

Which effect on transport [1] does the source give for [Zn] [zinc] here?
Its effect on transport is “markedly enhances transport”.

Which “effect on intracellular gating dynamics” value [2, 8] does the source give for CCCCCCCCO[C@@H]1O[C@H](CO)[C@@H](O)[C@H](O)[C@H]1O [OG, n-octyl-β-D-glucopyranoside] here?
Its value is “inhibited intracellular gating dynamics”.

For CN(C)CCCN1c2ccccc2CCc2ccc(Cl)cc21 [CMI, clomipramine], which “FRET value of stabilized high-FRET state” value ([2]; 0.5 mM CMI, 200 mM KCl, wild-type H7C/R86C) is on record?
The value was ~0.69.

What about the “effect on intracellular gating dynamics” value [2, 8] of the same molecule?
Its value is “essentially eliminated the occurrence of intracellular gate opening; also recorded: inhibits these conformational dynamics”.

And the “FRET between K239C/H480C labels with inhibitor bound” value [3]?
Its value is ~0.53.

For CC(C)C[C@H](N)C(=O)O [Leu, L-leucine], which “further changes in FRET upon addition of leucine” value ([2]; 20 μM leucine at 200 mM Na+) is on record?
Its value is “did not observe further changes in FRET”.

What about the “stabilization of closed intracellular gate state” value ([2]; 2 mM Na+, Leu titration) of the same molecule?
Its value is ~3.5 fold.

And the “effect of leucine binding on low-/high-FRET populations” value ([2]; 5 mM Na+, 0.2-20 μM leucine)?
The value was “redistributed the two populations in a concentration-dependent fashion in favour of higher-FRET configurations”.

And the “FRET value of high-FRET configurations reached by leucine-dependent isomerization” value ([2]; LeuT-R5A, 7/86 pair, 200 mM NaCl and 20 μM leucine)?
The value was ~0.77.

What about the “raising of energy barrier to motion” value ([2]; as much as, similar to Na+ (50 mM) alone) of the same molecule?
Its value is ~4 kJ/mol.

With C[C@H](N)C(=O)O [Ala, L-alanine] as the molecule, how does the substrate transport [4] read?
The substrate transport was “not observed”.

And the “effect on FRET distribution” value ([2]; 2 mM Na+, increasing Ala concentrations)?
The value was “did not shift the FRET distribution toward the closed state”.

And the “enhancement of transition rates between inward-open and inward-closed states” value ([2]; 2 mM Na+, as much as)?
Its value is ~4 fold.

And the “effect on lifetimes of inward-open or inward-closed states” value ([2]; Ala alone, nominal absence of Na+)?
Its value is “not significantly affected”.

What about the “effect on intracellular gating dynamics” value ([2]; F253A (S1 site) mutant, 10 mM Na+, 250 μM Ala) of the same molecule?
The value was “failed to increase intracellular gating dynamics”.

And the “effect on intracellular gating dynamics” value ([2]; L400S (S2 site) mutant, 10 mM Na+, 250 μM Ala)?
The value was “no increase in intracellular gating dynamics was observed”.

What about the “effect on intracellular gating dynamics” value ([2]; Li+ in place of Na+ (40 mM Li+), 250 μM Ala) of the same molecule?
The value was “failed to accelerate intracellular gating dynamics”.

And the “reduction in the rate of gate opening, kclosed-open” value ([2]; Li+ in place of Na+, 250 μM Ala)?
The value was ~2 fold.

What about the “lowering of activation barrier between open and closed states (ΔΔG)” value ([2]; as much as, conditions of the experiment) of the same molecule?
The value was ~3 kJ/mol.

What about the “Ala binding to the S2 site” value ([5]; F253A mutant) of the same molecule?
Its value is “bound stoichiometrically”.

And the “Ala binding to the S1 site” value ([5]; L400S mutant)?
Its value is “stoichiometric”.

What does the source list for [Na+] [Na^+]?
FRET value of stabilized higher-FRET state [6]: ~0.73; preferential stabilization of the inward-closed state ([2]; Na+ titration): ~7 fold; EC50 ([2]; hidden Markov modeling of Na+ titration, read-out: EC50 for altering distribution of low- and high-FRET LeuT conformations): 10.9 mM; dwell time of high FRET state ([2]; high Na+ concentrations, limited by photobleaching): > 76 s; FRET value of stabilized higher-FRET state ([2]; saturating Na+ 200 mM, H7C/R86C): ~0.77; EC50 [7]: ~10 mM
